Reference: ChEMBL document CHEMBL4229455, “Synthesis and anticancer activity of novel bisindolylhydroxymaleimide derivatives with potent GSK-3 kinase inhibition” (Bioorg Med Chem, 2018)

Tests used:
Format in all cases: functional
NCI-H226 = assay: Cytotoxicity against human NCI-H226 cells after 48 hrs by SRB assay; settings: NCI-H226, 48 h
NCI-H522 = assay: Cytotoxicity against human NCI-H522 cells assessed as cell growth at 1 uM after 48 hrs by SRB assay relative to control; settings: NCI-H522, 48 h, read-out: Activity
BT-549 = assay: Cytotoxicity against human BT549 cells assessed as cell growth at 100 uM after 48 hrs by SRB assay relative to control; settings: BT-549, 48 h, read-out: Activity
MOLT-4 = assay: Cytotoxicity against human MOLT4 cells assessed as cell growth at 100 uM after 48 hrs by SRB assay relative to control; settings: MOLT-4, 48 h, read-out: Activity
CCRF-CEM [1] = assay: Cytotoxicity against human CCRF-CEM cells assessed as cell growth at 0.01 uM after 48 hrs by SRB assay relative to control; settings: read-out: Activity
OVCAR-3 = assay: Cytotoxicity against human OVCAR3 cells assessed as cell growth at 0.01 uM after 48 hrs by SRB assay relative to control; settings: OVCAR-3, 48 h, read-out: Activity
HCT-116 = assay: Cytotoxicity against human HCT116 cells assessed as cell growth at 0.01 uM after 48 hrs by SRB assay relative to control; settings: HCT-116, 48 h, read-out: Activity
HCT-15 = assay: Cytotoxicity against human HCT15 cells assessed as cell growth at 100 uM after 48 hrs by SRB assay relative to control; settings: HCT-15, 48 h, read-out: Activity
SNB-19 [2] = assay: Cytotoxicity against human SNB19 cells assessed as cell growth at 0.01 uM after 48 hrs by SRB assay relative to control; settings: SNB-19, 48 h, read-out: Activity
SR [3] = assay: Cytotoxicity against human SR cells assessed as cell growth at 0.01 uM after 48 hrs by SRB assay relative to control; settings: read-out: Activity
UO-31 = assay: Cytotoxicity against human UO31 cells assessed as cell growth at 0.1 uM after 48 hrs by SRB assay relative to control; settings: UO-31, 48 h, read-out: Activity
KM12 = assay: Cytotoxicity against human KM12 cells assessed as cell growth at 100 uM after 48 hrs by SRB assay relative to control; settings: KM12, 48 h, read-out: Activity
OVCAR-5 = assay: Cytotoxicity against human OVCAR5 cells assessed as cell growth at 1 uM after 48 hrs by SRB assay relative to control; settings: OVCAR-5, 48 h, read-out: Activity
T47D = assay: Cytotoxicity against human T47D cells assessed as cell growth at 1 uM after 48 hrs by SRB assay relative to control; settings: read-out: Activity
NCI-H23 = assay: Cytotoxicity against human NCI-H23 cells assessed as cell growth at 100 uM after 48 hrs by SRB assay relative to control; settings: NCI-H23, 48 h, read-out: Activity
Hs-578T = assay: Cytotoxicity against human Hs 578T cells assessed as cell growth at 0.1 uM after 48 hrs by SRB assay relative to control; settings: read-out: Activity
SR [4] = assay: Cytotoxicity against human SR cells assessed as cell growth at 1 uM after 48 hrs by SRB assay relative to control; settings: read-out: Activity
SK-MEL-2 = assay: Cytotoxicity against human SK-MEL-2 cells assessed as cell growth at 0.1 uM after 48 hrs by SRB assay relative to control; settings: SK-MEL-2, 48 h, read-out: Activity
DU-145 = assay: Cytotoxicity against human DU145 cells assessed as cell growth at 0.01 uM after 48 hrs by SRB assay relative to control; settings: DU-145, 48 h, read-out: Activity
SNB-19 [5] = assay: Cytotoxicity against human SNB19 cells assessed as cell growth at 0.1 uM after 48 hrs by SRB assay relative to control; settings: SNB-19, 48 h, read-out: Activity
A549 = assay: Cytotoxicity against human A549 cells assessed as cell growth at 100 uM after 48 hrs by SRB assay relative to control; settings: A549, 48 h, read-out: Activity
RXF 393 = assay: Cytotoxicity against human RXF393 cells assessed as cell growth at 1 uM after 48 hrs by SRB assay relative to control; settings: RXF 393, 48 h, read-out: Activity
SK-MEL-5 = assay: Cytotoxicity against human SK-MEL-5 cells assessed as cell growth at 1 uM after 48 hrs by SRB assay relative to control; settings: SK-MEL-5, 48 h, read-out: Activity
SW-620 = assay: Cytotoxicity against human SW620 cells after 48 hrs by SRB assay; settings: SW-620, 48 h
SF-539 = assay: Cytotoxicity against human SF539 cells assessed as cell growth at 0.1 uM after 48 hrs by SRB assay relative to control; settings: SF-539, 48 h, read-out: Activity
MDA-MB-435 = assay: Cytotoxicity against human MDA-MB-435 cells assessed as cell growth at 0.1 uM after 48 hrs by SRB assay relative to control; settings: MDA-MB-435, 48 h, read-out: Activity
HL-60(TB) = assay: Cytotoxicity against human HL-60(TB) cells assessed as cell growth at 0.1 uM after 48 hrs by SRB assay relative to control; settings: HL-60, 48 h, read-out: Activity
ACHN = assay: Cytotoxicity against human ACHN cells assessed as cell growth at 100 uM after 48 hrs by SRB assay relative to control; settings: read-out: Activity
MDA-MB-231 [6] = assay: Cytotoxicity against human MDA-MB-231 cells assessed as cell growth at 0.1 uM after 48 hrs by SRB assay relative to control; settings: MDA-MB-231, 48 h, read-out: Activity
MDA-MB-468 = assay: Cytotoxicity against human MDA-MB-468 cells assessed as cell growth at 0.1 uM after 48 hrs by SRB assay relative to control; settings: MDA-MB-468, 48 h, read-out: Activity
LOX IMVI = assay: Cytotoxicity against human LOXIMVI cells assessed as cell growth at 100 uM after 48 hrs by SRB assay relative to control; settings: read-out: Activity
MDA-MB-231 [7] = assay: Cytotoxicity against human MDA-MB-231 cells after 48 hrs by SRB assay; settings: MDA-MB-231, 48 h
HT-29 = assay: Cytotoxicity against human HT-29 cells assessed as cell growth at 100 uM after 48 hrs by SRB assay relative to control; settings: HT-29, 48 h, read-out: Activity
CCRF-CEM [8] = assay: Cytotoxicity against human CCRF-CEM cells assessed as cell growth at 1 uM after 48 hrs by SRB assay relative to control; settings: read-out: Activity
PC-3 = assay: Cytotoxicity against human PC3 cells assessed as cell growth at 1 uM after 48 hrs by SRB assay relative to control; settings: PC-3, 48 h, read-out: Activity
HOP-92 = assay: Cytotoxicity against human HOP92 cells after 48 hrs by SRB assay; settings: HOP-92, 48 h; for CC50: read-out: LC50 (the source's name)

## N#CCCCCCn1cc(C2=C(c3cn(CCCCCC#N)c4ccccc34)C(=O)N(O)C2=O)c2ccccc21
NCI-H226
  GI50: 7.26 µM
  LC50: > 100 µM
  TGI: 70.8 µM
NCI-H522
  growth at 1 µM: 85%
BT-549
  growth at 100 µM: -26%
MOLT-4
  growth at 100 µM: 2%
CCRF-CEM [1]
  growth at 0.01 µM: 91%
OVCAR-3
  growth at 0.01 µM: 99%
HCT-116
  growth at 0.01 µM: 102%
HCT-15
  growth at 100 µM: 1%
SNB-19 [2]
  growth at 0.01 µM: 97%
SR [3]
  growth at 0.01 µM: 84%
UO-31
  growth at 0.1 µM: 66%
KM12
  growth at 100 µM: -23%
OVCAR-5
  growth at 1 µM: 91%
T47D
  growth at 1 µM: 89%
NCI-H23
  growth at 100 µM: 1%
Hs-578T
  growth at 0.1 µM: 91%
SR [4]
  growth at 1 µM: 114%
SK-MEL-2
  growth at 0.1 µM: 98%
DU-145
  growth at 0.01 µM: 101%
SNB-19 [5]
  growth at 0.1 µM: 95%
A549
  growth at 100 µM: 5%
RXF 393
  growth at 1 µM: 98%
SK-MEL-5
  growth at 1 µM: 92%
SW-620
  GI50: 4.76 µM
  LC50: > 100 µM
  TGI: > 100 µM
SF-539
  growth at 0.1 µM: 90%
MDA-MB-435
  growth at 0.1 µM: 95%
HL-60(TB)
  growth at 0.1 µM: 89%
ACHN
  growth at 100 µM: 4%
MDA-MB-231 [6]
  growth at 0.1 µM: 91%
MDA-MB-468
  growth at 0.1 µM: 105%
LOX IMVI
  growth at 100 µM: -9%
MDA-MB-231 [7]
  GI50: 4.26 µM
  LC50 (50% lethal concentration): > 100 µM
  TGI: 64.7 µM
HT-29
  growth at 100 µM: -33%
CCRF-CEM [8]
  growth at 1 µM: 83%
PC-3
  growth at 1 µM: 80%
HOP-92
  GI50: 5.03 µM
  TGI: > 100 µM
  CC50: > 100 µM

## Cn1cc(C2=C(c3cn(C)c4ncccc34)C(=O)NC2=O)c2ccccc21
NCI-H226
  GI50: 2.24 µM
  TGI: 6.84 µM
NCI-H522
  growth at 1 µM: 93%
BT-549
  growth at 100 µM: -30%
MOLT-4
  growth at 100 µM: -24%
CCRF-CEM [1]
  growth at 0.01 µM: 98%
OVCAR-3
  growth at 0.01 µM: 107%
HCT-116
  growth at 0.01 µM: 106%
HCT-15
  growth at 100 µM: -6%
SNB-19 [2]
  growth at 0.01 µM: 92%
SR [3]
  growth at 0.01 µM: 89%
UO-31
  growth at 0.1 µM: 89%
KM12
  growth at 100 µM: -86%
OVCAR-5
  growth at 1 µM: 103%
T47D
  growth at 1 µM: 74%
NCI-H23
  growth at 100 µM: -40%
Hs-578T
  growth at 0.1 µM: 81%
SR [4]
  growth at 1 µM: 51%
SK-MEL-2
  growth at 0.1 µM: 113%
DU-145
  growth at 0.01 µM: 107%
SNB-19 [5]
  growth at 0.1 µM: 91%
A549
  growth at 100 µM: -19%
RXF 393
  growth at 1 µM: 83%
SK-MEL-5
  growth at 1 µM: 89%
SW-620
  GI50: 3.61 µM
  TGI: 32.6 µM
SF-539
  growth at 0.1 µM: 107%
MDA-MB-435
  growth at 0.1 µM: 93%
HL-60(TB)
  growth at 0.1 µM: 99%
ACHN
  growth at 100 µM: -11%
MDA-MB-231 [6]
  growth at 0.1 µM: 104%
MDA-MB-468
  growth at 0.1 µM: 96%
LOX IMVI
  growth at 100 µM: -18%
MDA-MB-231 [7]
  GI50: 4.67 µM
  TGI: 38.8 µM
HT-29
  growth at 100 µM: -10%
CCRF-CEM [8]
  growth at 1 µM: 85%
PC-3
  growth at 1 µM: 86%
HOP-92
  GI50: 2.54 µM
  TGI: 23.4 µM
  CC50: > 100 µM
